From ChEMBL document CHEMBL3421548, “PMA-SiO2 catalyzed synthesis of indolo[2,3-c]quinolines as potent anti cancer agents” (Bioorg Med Chem Lett, 2015)
The source made the active and inactive calls. The calls are words filed in the database; no cut-off is given here.

System: DU-145
Assay: Cell cycle arrest in human DU145 cells assessed as accumulation at S phase at 15 uM after 24 hrs by RNase/propidium iodide staining-based flow cytometry (reference value: 4.24%)
Assay type: functional
Details: not given

| SMILES | Activity |
| --- | --- |
| c1csc(-c2ccc(-c3nc4ccccc4c4c3[nH]c3ccccc34)s2)c1 | 2.97% |
| Cc1cn([C@H]2C[C@H](N=[N+]=[N-])[C@@H](c3nc4ccccc4c4c3[nH]c3ccccc34)O2)c(=O)[nH]c1=O | 6.53% |

System: DU-145
Assay: Cell cycle arrest in human DU145 cells assessed as accumulation at G2/M phase at 25 uM after 24 hrs by RNase/propidium iodide staining-based flow cytometry (reference value: 13.7%)
Assay type: functional
Details: not given

| SMILES | Activity |
| --- | --- |
| c1csc(-c2ccc(-c3nc4ccccc4c4c3[nH]c3ccccc34)s2)c1 | 7.89% |
| Cc1cn([C@H]2C[C@H](N=[N+]=[N-])[C@@H](c3nc4ccccc4c4c3[nH]c3ccccc34)O2)c(=O)[nH]c1=O | 28.22% |

System: DU-145
Assay: Cell cycle arrest in human DU145 cells assessed as accumulation at G1 phase at 50 uM after 24 hrs by RNase/propidium iodide staining-based flow cytometry (reference value: 82.57%)
Assay type: functional
Details: not given

| SMILES | Activity |
| --- | --- |
| c1csc(-c2ccc(-c3nc4ccccc4c4c3[nH]c3ccccc34)s2)c1 | 97.58% |
| Cc1cn([C@H]2C[C@H](N=[N+]=[N-])[C@@H](c3nc4ccccc4c4c3[nH]c3ccccc34)O2)c(=O)[nH]c1=O | 52.07% |

System: DU-145
Assay: Cell cycle arrest in human DU145 cells assessed as accumulation at G1 phase after 24 hrs by RNase/propidium iodide staining-based flow cytometry
Assay type: functional
Details: not given

| SMILES | Activity |
| --- | --- |
| c1csc(-c2ccc(-c3nc4ccccc4c4c3[nH]c3ccccc34)s2)c1 | Dose-dependent effect |

System: DU-145
Assay: Cell cycle arrest in human DU145 cells assessed as accumulation at G1 phase at 15 uM after 24 hrs by RNase/propidium iodide staining-based flow cytometry (reference value: 82.57%)
Assay type: functional
Details: not given

| SMILES | Activity |
| --- | --- |
| c1csc(-c2ccc(-c3nc4ccccc4c4c3[nH]c3ccccc34)s2)c1 | 87.81% |
| Cc1cn([C@H]2C[C@H](N=[N+]=[N-])[C@@H](c3nc4ccccc4c4c3[nH]c3ccccc34)O2)c(=O)[nH]c1=O | 74.76% |

System: DU-145
Assay: Effect on NF-kappaB total expression in human DU145 cells at 5 to 25 uM after 24 hrs by Western blotting analysis
Assay type: functional, cell-based
Details: not given

| SMILES | Activity |
| --- | --- |
| c1csc(-c2ccc(-c3nc4ccccc4c4c3[nH]c3ccccc34)s2)c1 | inactive |
| Cc1cn([C@H]2C[C@H](N=[N+]=[N-])[C@@H](c3nc4ccccc4c4c3[nH]c3ccccc34)O2)c(=O)[nH]c1=O | inactive |

System: DU-145
Assay: Reduction in NF-kappaB p65 phosphorylation in human DU145 cells at 5 to 25 uM after 24 hrs by Western blotting analysis
Assay type: functional, cell-based
Details: not given

| SMILES | Activity |
| --- | --- |
| c1csc(-c2ccc(-c3nc4ccccc4c4c3[nH]c3ccccc34)s2)c1 | Active |
| Cc1cn([C@H]2C[C@H](N=[N+]=[N-])[C@@H](c3nc4ccccc4c4c3[nH]c3ccccc34)O2)c(=O)[nH]c1=O | Active |

System: DU-145
Assay: Cell cycle arrest in human DU145 cells assessed as accumulation at G2/M phase at 15 uM after 24 hrs by RNase/propidium iodide staining-based flow cytometry (reference value: 13.7%)
Assay type: functional
Details: not given

| SMILES | Activity |
| --- | --- |
| c1csc(-c2ccc(-c3nc4ccccc4c4c3[nH]c3ccccc34)s2)c1 | 9.6% |
| Cc1cn([C@H]2C[C@H](N=[N+]=[N-])[C@@H](c3nc4ccccc4c4c3[nH]c3ccccc34)O2)c(=O)[nH]c1=O | 19.79% |

System: DU-145
Assay: Cell cycle arrest in human DU145 cells assessed as accumulation at G1 phase at 10 uM after 24 hrs by RNase/propidium iodide staining-based flow cytometry (reference value: 82.57%)
Assay type: functional
Details: not given

| SMILES | Activity |
| --- | --- |
| c1csc(-c2ccc(-c3nc4ccccc4c4c3[nH]c3ccccc34)s2)c1 | 86.17% |
| Cc1cn([C@H]2C[C@H](N=[N+]=[N-])[C@@H](c3nc4ccccc4c4c3[nH]c3ccccc34)O2)c(=O)[nH]c1=O | 77.6% |

System: DU-145
Assay: Cell cycle arrest in human DU145 cells assessed as accumulation at S phase at 5 uM after 24 hrs by RNase/propidium iodide staining-based flow cytometry (reference value: 4.24%)
Assay type: functional
Details: not given

| SMILES | Activity |
| --- | --- |
| c1csc(-c2ccc(-c3nc4ccccc4c4c3[nH]c3ccccc34)s2)c1 | 3.61% |
| Cc1cn([C@H]2C[C@H](N=[N+]=[N-])[C@@H](c3nc4ccccc4c4c3[nH]c3ccccc34)O2)c(=O)[nH]c1=O | 4.16% |

System: DU-145
Assay: Cell cycle arrest in human DU145 cells assessed as accumulation at G2/M phase at 10 uM after 24 hrs by RNase/propidium iodide staining-based flow cytometry (reference value: 13.7%)
Assay type: functional
Details: not given

| SMILES | Activity |
| --- | --- |
| c1csc(-c2ccc(-c3nc4ccccc4c4c3[nH]c3ccccc34)s2)c1 | 10.74% |
| Cc1cn([C@H]2C[C@H](N=[N+]=[N-])[C@@H](c3nc4ccccc4c4c3[nH]c3ccccc34)O2)c(=O)[nH]c1=O | 18.23% |

System: Mycobacterium sp.
Assay: Antimycobacterial activity against Mycobacterium sp.
Assay type: functional, organism-based
Details: not given

| SMILES | Activity |
| --- | --- |
| c1ccc(COc2ccc(-c3nc4ccccc4c4c3[nH]c3ccccc34)cc2)cc1 | inactive |
| c1csc(-c2ccc(-c3nc4ccccc4c4c3[nH]c3ccccc34)s2)c1 | inactive |
| Cc1cn([C@H]2C[C@H](N=[N+]=[N-])[C@@H](c3nc4ccccc4c4c3[nH]c3ccccc34)O2)c(=O)[nH]c1=O | inactive |

System: DU-145
Assay: Cell cycle arrest in human DU145 cells assessed as accumulation at G2/M phase after 24 hrs by RNase/propidium iodide staining-based flow cytometry
Assay type: functional
Details: not given

| SMILES | Activity |
| --- | --- |
| Cc1cn([C@H]2C[C@H](N=[N+]=[N-])[C@@H](c3nc4ccccc4c4c3[nH]c3ccccc34)O2)c(=O)[nH]c1=O | Dose-dependent effect |

System: not listed separately
Assay: Cytotoxicity against mouse NIH/3T3 cells after 48 hrs by SRB method
Assay type: cell-based
Details: NIH3T3, 48 h

| SMILES | IC50 |
| --- | --- |
| c1ccc(COc2ccc(-c3nc4ccccc4c4c3[nH]c3ccccc34)cc2)cc1 | > 200 µM |
| c1csc(-c2ccc(-c3nc4ccccc4c4c3[nH]c3ccccc34)s2)c1 | 89.5 µM |
| Cc1cn([C@H]2C[C@H](N=[N+]=[N-])[C@@H](c3nc4ccccc4c4c3[nH]c3ccccc34)O2)c(=O)[nH]c1=O | 63.3 µM |

System: HeLa
Assay: Cytotoxicity against human HeLa cells after 48 hrs by SRB method
Assay type: functional, cell-based
Details: not given

| SMILES | IC50 |
| --- | --- |
| c1ccc(COc2ccc(-c3nc4ccccc4c4c3[nH]c3ccccc34)cc2)cc1 | 67.9 µM |
| c1csc(-c2ccc(-c3nc4ccccc4c4c3[nH]c3ccccc34)s2)c1 | 6.59 µM |
| Cc1cn([C@H]2C[C@H](N=[N+]=[N-])[C@@H](c3nc4ccccc4c4c3[nH]c3ccccc34)O2)c(=O)[nH]c1=O | 17.3 µM |

System: DU-145
Assay: Cytotoxicity against human DU145 cells after 48 hrs by SRB method
Assay type: functional, cell-based
Details: DU-145, 48 h

| SMILES | IC50 |
| --- | --- |
| c1ccc(COc2ccc(-c3nc4ccccc4c4c3[nH]c3ccccc34)cc2)cc1 | 70 µM |
| c1csc(-c2ccc(-c3nc4ccccc4c4c3[nH]c3ccccc34)s2)c1 | 0.52 µM |
| Cc1cn([C@H]2C[C@H](N=[N+]=[N-])[C@@H](c3nc4ccccc4c4c3[nH]c3ccccc34)O2)c(=O)[nH]c1=O | 10.1 µM |

System: MCF7
Assay: Cytotoxicity against human MCF7 cells after 48 hrs by SRB method
Assay type: functional, cell-based
Details: MCF7, 48 h

| SMILES | IC50 |
| --- | --- |
| c1ccc(COc2ccc(-c3nc4ccccc4c4c3[nH]c3ccccc34)cc2)cc1 | 58.9 µM |
| c1csc(-c2ccc(-c3nc4ccccc4c4c3[nH]c3ccccc34)s2)c1 | 10.7 µM |
| Cc1cn([C@H]2C[C@H](N=[N+]=[N-])[C@@H](c3nc4ccccc4c4c3[nH]c3ccccc34)O2)c(=O)[nH]c1=O | 4.78 µM |

System: DU-145
Assay: Cell cycle arrest in human DU145 cells assessed as accumulation at G1 phase at 25 uM after 24 hrs by RNase/propidium iodide staining-based flow cytometry (reference value: 82.57%)
Assay type: functional
Details: not given

| SMILES | Activity |
| --- | --- |
| c1csc(-c2ccc(-c3nc4ccccc4c4c3[nH]c3ccccc34)s2)c1 | 89.28% |
| Cc1cn([C@H]2C[C@H](N=[N+]=[N-])[C@@H](c3nc4ccccc4c4c3[nH]c3ccccc34)O2)c(=O)[nH]c1=O | 62.12% |

System: DU-145
Assay: Cell cycle arrest in human DU145 cells assessed as accumulation at G2/M phase at 50 uM after 24 hrs by RNase/propidium iodide staining-based flow cytometry (reference value: 13.7%)
Assay type: functional
Details: not given

| SMILES | Activity |
| --- | --- |
| c1csc(-c2ccc(-c3nc4ccccc4c4c3[nH]c3ccccc34)s2)c1 | 1.89% |
| Cc1cn([C@H]2C[C@H](N=[N+]=[N-])[C@@H](c3nc4ccccc4c4c3[nH]c3ccccc34)O2)c(=O)[nH]c1=O | 39.57% |

System: DU-145
Assay: Cell cycle arrest in human DU145 cells assessed as accumulation at S phase at 50 uM after 24 hrs by RNase/propidium iodide staining-based flow cytometry (reference value: 4.24%)
Assay type: functional
Details: not given

| SMILES | Activity |
| --- | --- |
| c1csc(-c2ccc(-c3nc4ccccc4c4c3[nH]c3ccccc34)s2)c1 | 0.63% |
| Cc1cn([C@H]2C[C@H](N=[N+]=[N-])[C@@H](c3nc4ccccc4c4c3[nH]c3ccccc34)O2)c(=O)[nH]c1=O | 9.74% |

System: DU-145
Assay: Cell cycle arrest in human DU145 cells assessed as accumulation at S phase at 10 uM after 24 hrs by RNase/propidium iodide staining-based flow cytometry (reference value: 4.24%)
Assay type: functional
Details: not given

| SMILES | Activity |
| --- | --- |
| c1csc(-c2ccc(-c3nc4ccccc4c4c3[nH]c3ccccc34)s2)c1 | 3.79% |
| Cc1cn([C@H]2C[C@H](N=[N+]=[N-])[C@@H](c3nc4ccccc4c4c3[nH]c3ccccc34)O2)c(=O)[nH]c1=O | 5% |

System: DU-145
Assay: Cell cycle arrest in human DU145 cells assessed as accumulation at G1 phase at 5 uM after 24 hrs by RNase/propidium iodide staining-based flow cytometry (reference value: 82.57%)
Assay type: functional
Details: not given

| SMILES | Activity |
| --- | --- |
| c1csc(-c2ccc(-c3nc4ccccc4c4c3[nH]c3ccccc34)s2)c1 | 84.55% |
| Cc1cn([C@H]2C[C@H](N=[N+]=[N-])[C@@H](c3nc4ccccc4c4c3[nH]c3ccccc34)O2)c(=O)[nH]c1=O | 80.75% |

System: DU-145
Assay: Cell cycle arrest in human DU145 cells assessed as accumulation at G2/M phase at 5 uM after 24 hrs by RNase/propidium iodide staining-based flow cytometry (reference value: 13.7%)
Assay type: functional
Details: not given

| SMILES | Activity |
| --- | --- |
| c1csc(-c2ccc(-c3nc4ccccc4c4c3[nH]c3ccccc34)s2)c1 | 12.38% |
| Cc1cn([C@H]2C[C@H](N=[N+]=[N-])[C@@H](c3nc4ccccc4c4c3[nH]c3ccccc34)O2)c(=O)[nH]c1=O | 15.78% |

System: DU-145
Assay: Cell cycle arrest in human DU145 cells assessed as accumulation at S phase at 25 uM after 24 hrs by RNase/propidium iodide staining-based flow cytometry (reference value: 4.24%)
Assay type: functional
Details: not given

| SMILES | Activity |
| --- | --- |
| c1csc(-c2ccc(-c3nc4ccccc4c4c3[nH]c3ccccc34)s2)c1 | 2.83% |
| Cc1cn([C@H]2C[C@H](N=[N+]=[N-])[C@@H](c3nc4ccccc4c4c3[nH]c3ccccc34)O2)c(=O)[nH]c1=O | 11.78% |

System: A549
Assay: Cytotoxicity against human A549 cells after 48 hrs by SRB method
Assay type: functional, cell-based
Details: A549, 48 h

| SMILES | IC50 |
| --- | --- |
| c1ccc(COc2ccc(-c3nc4ccccc4c4c3[nH]c3ccccc34)cc2)cc1 | 29.9 µM |
| c1csc(-c2ccc(-c3nc4ccccc4c4c3[nH]c3ccccc34)s2)c1 | 3.03 µM |
| Cc1cn([C@H]2C[C@H](N=[N+]=[N-])[C@@H](c3nc4ccccc4c4c3[nH]c3ccccc34)O2)c(=O)[nH]c1=O | 6.2 µM |
